Laboratory results from patent US20240150377A1, “MODULATORS OF CYSTIC FIBROSIS TRANSMEMBRANE CONDUCTANCE REGULATOR” (VERTEX PHARMACEUTICALS INCORPORATED, priority 2020, published 2024).
Where two headings read alike, the source gives them in different places.

Target: CFTR (Homo sapiens, UniProt P13569)
Test: Membrane potential dye, Enteroid Assay A
Assay type: cell-based
Conditions: for Ent. A Max Activity: chloride transport as % of triple combination control (Enteroid Assay A); for EC50: human enteroid cells, 18-24 hours, acute 10 μM forskolin and 300 nM ivacaftor, read-out: Ent. A EC50
Description: Base medium (ADF+++) consisted of Advanced DMEM/Ham's F12, 2 mM Glutamax, 10 mM HEPES, […] penicillin/streptomycin.
Intestinal enteroid maintenance medium (IEMM) consisted of ADF+++, 1× B27 supplement, 1× N2 supplement, 1.25 mM N-acetyl cysteine, 10 mM Nicotinamide, 50 ng/mL hEGF, 10 nM Gastrin, 1 μg/mL hR-spondin-1, 100 ng/mL hNoggin, TGF-b type 1 inhibitor A-83-01, 100 μg/mL Primocin, 10 μM P38 MAPK inhibitor SB202190.
Bath 1 Buffer consisted of 1 mM MgCl2, 160 mM NaCl, 4.5 mM KCl, 10 mM HEPES, 10 mM Glucose, 2 mM CaCl2).
Chloride Free Buffer consisted of 1 mM Magnesium Gluconate, 2 mM Calcium Gluconate, 4.5 mM Potassium Gluconate, 160 mM Sodium Gluconate, 10 mM HEPES, 10 mM Glucose.
BathI Dye Solution consisted of Bath 1 Buffer, 0.04% Pluronic F127, 20 μM Methyl Oxonol, 30 μM CaCCinh-A01, 30 μM Chicago Sky Blue.
Chloride Free Dye Solution consisted of Chloride Free Buffer, 0.04% Pluronic F127, 20 μM Methyl Oxonol, 30 μM CaCCinh-A01, 30 μM Chicago Sky Blue.
Chloride Free Dye Stimulation Solution consisted of Chloride Free Dye Solution, 10 μM forskolin, 100 μM IBMX, and 300 nM Compound III.
Human intestinal epithelial enteroid cells were obtained from the Hubrecht Institute for Developmental Biology and Stem Cell Research, Utrecht, The Netherlands and expanded in T-Flasks as previously described (Dekkers J F, Wiegerinck C L, de Jonge H R, Bronsveld I, Janssens H M, de Winter-de Groot K M, Brandsma A M, de Jong N W M, Bijvelds M J C, Scholte B J, Nieuwenhuis E E S, van den Brink S, Clevers H, van der Ent C K, Middendorp S and M Beekman J M. A functional CFTR assay using primary cystic fibrosis intestinal organoids. Nat Med. 2013 July;19(7):939-45.).
3. Enteroid Cell Harvesting and Seeding
Cells were recovered in cell recovery solution, collected by centrifugation at 650 rpm for 5 min at 4° C., resuspended in TrypLE and incubated for 5 min at 37° C. Cells were then collected by centrifugation at 650 rpm for 5 min at 4° C. and resuspended in IEMM containing 10 μM ROCK inhibitor (RI). The cell suspension was passed through a 40 μm cell strainer and resuspended at 1×10^6 cells/mL in IEMM containing 10 μM RI. Cells were seeded at 5000 cells/well into multi-well plates and incubated for overnight at 37° C., 95% humidity and 5% CO2 prior to assay.
4. Membrane Potential Dye, Enteroid Assay A
Enteroid cells were incubated with test compound in IEMM for 18-24 hours at 37° C., 95% humidity and 5% CO2. […] Briefly, cells were washed 5 times in Bath 1 Buffer. Bath 1 Dye Solution was added, and the cells were incubated for 25 min at room temperature. Following dye incubation, cells were washed 3 times in Chloride Free Dye Solution. Chloride transport was initiated by addition of Chloride Free Dye Stimulation Solution and the fluorescence signal was read for 15 min. […] Chloride transport was then expressed as a percentage of the chloride transport following treatment with 3 μM N-[(6-amino-2-pyridyl)sulfonyl]-6-(3-fluoro-5-isobutoxy-phenyl)-2-[(4S)-2,2,4-trimethylpyrrolidin-1-yl]pyridine-3-carboxamide, 3 μM (R)-1-(2,2-difluorobenzo[d][1,3]dioxol-5-yl)-N-(1-(2,3-dihydroxypropyl)-6-fluoro-2-(1-hydroxy-2-methylpropan-2-yl)-1H-indol-5-yl)cyclopropanecarboxamide and 300 nM acute N-[2,4-bis(1,1-dimethylethyl)-5-hydroxyphenyl]-1,4-dihydro-4-oxoquinoline-3-carboxamide triple combination control (% Activity).

CFTR, sequence (P13569 with tags, fused parts or gaps DEL508-508): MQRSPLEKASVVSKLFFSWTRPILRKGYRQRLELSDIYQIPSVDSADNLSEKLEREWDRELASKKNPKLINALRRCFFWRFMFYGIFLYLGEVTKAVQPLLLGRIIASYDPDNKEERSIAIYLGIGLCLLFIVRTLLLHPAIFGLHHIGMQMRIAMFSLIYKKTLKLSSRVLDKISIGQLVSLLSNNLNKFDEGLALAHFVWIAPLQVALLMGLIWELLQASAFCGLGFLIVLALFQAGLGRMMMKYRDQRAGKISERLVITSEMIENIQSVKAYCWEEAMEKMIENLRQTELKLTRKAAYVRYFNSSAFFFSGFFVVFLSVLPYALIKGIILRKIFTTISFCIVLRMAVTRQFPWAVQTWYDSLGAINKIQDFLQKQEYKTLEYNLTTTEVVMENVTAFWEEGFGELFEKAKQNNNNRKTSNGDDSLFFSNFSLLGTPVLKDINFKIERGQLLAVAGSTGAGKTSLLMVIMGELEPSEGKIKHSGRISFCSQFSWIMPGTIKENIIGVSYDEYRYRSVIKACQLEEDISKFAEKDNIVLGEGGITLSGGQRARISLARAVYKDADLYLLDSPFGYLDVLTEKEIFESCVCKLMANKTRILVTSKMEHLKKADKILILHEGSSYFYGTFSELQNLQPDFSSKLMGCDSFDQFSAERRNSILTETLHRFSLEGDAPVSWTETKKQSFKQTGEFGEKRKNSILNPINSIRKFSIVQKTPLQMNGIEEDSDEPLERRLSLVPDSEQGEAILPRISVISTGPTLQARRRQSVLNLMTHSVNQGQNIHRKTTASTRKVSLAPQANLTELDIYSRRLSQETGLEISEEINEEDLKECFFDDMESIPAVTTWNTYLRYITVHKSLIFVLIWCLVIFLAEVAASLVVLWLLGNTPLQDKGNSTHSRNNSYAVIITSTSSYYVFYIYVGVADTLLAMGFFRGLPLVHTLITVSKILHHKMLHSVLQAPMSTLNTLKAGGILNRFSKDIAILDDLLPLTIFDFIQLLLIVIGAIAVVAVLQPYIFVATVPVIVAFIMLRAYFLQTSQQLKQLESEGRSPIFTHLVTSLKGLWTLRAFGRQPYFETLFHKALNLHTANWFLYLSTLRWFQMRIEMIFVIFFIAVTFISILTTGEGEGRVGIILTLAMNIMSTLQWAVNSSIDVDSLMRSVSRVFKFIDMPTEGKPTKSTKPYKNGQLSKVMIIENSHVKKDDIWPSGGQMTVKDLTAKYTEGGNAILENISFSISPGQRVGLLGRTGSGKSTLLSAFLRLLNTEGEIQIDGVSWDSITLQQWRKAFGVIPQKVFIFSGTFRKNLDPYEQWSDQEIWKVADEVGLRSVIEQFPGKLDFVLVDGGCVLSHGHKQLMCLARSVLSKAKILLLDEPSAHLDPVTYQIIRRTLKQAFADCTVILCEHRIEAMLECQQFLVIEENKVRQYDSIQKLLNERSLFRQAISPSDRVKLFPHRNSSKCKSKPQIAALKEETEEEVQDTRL

Ent. A Max Activity (Table 7) | EC50 (Table 7) | Ent. A Max Activity (Table 6) | EC50 (Table 6) | Structure (SMILES)
+++ (+++ is >60%) | < 1 µM |  |  | CNC(=O)c1ccc(CN2C(=O)c3cccc(c3)S(=O)(=O)Nc3nc(cc(-c4c(C)cccc4C)n3)OC[C@H]2CC(C)C)cn1 [Compound 93, 5-{[(11R)-6-(2,6-dimethylphenyl)-11-(2-methylpropyl)-2,2,13-trioxo-9-oxa-2λ^6-thia-3,5,12,19-tetraazatricyclo[12.3.1.14,8]nonadeca-1(18),4(19),5,7,14,16-hexaen-12-yl]methyl}-N-methylpyridine-2-carboxamide]
 |  | ++ (++ is 30-60%) | < 1 µM | C=CC1CN(CCC(C)C)C(=O)c2cccc(c2)S(=O)(=O)Nc2nc(cc(-c3c(C)cccc3C)n2)O1 (stereo not shown) [Compound 1012]
 |  | ++ (++ is 30-60%) | 1 to 3 µM | Cc1cccc(C)c1-c1cc2nc(n1)NS(=O)(=O)c1cccc(c1)C(=O)N(CCC(C)C)CC(c1ccc(C(C)(C)C)cc1)O2 (stereo not shown) [Compound 341]
 |  | +++ (+++ is >60%) | 1 to 3 µM | Cc1cccc(C)c1-c1cc2nc(n1)NS(=O)(=O)c1cccc(c1)C(=O)N(CC1CCN(C)CC1)[C@H](CC(C)C)CO2 [Compound 360]
 |  | +++ (+++ is >60%) | < 1 µM | Cc1cccc(C)c1-c1cc2nc(n1)NS(=O)(=O)c1cccc(c1)C(=O)N(CC1CC1)[C@H](CC(C)C)CO2 [Compound 366]
 |  | + (+ is <30%) |  | Cc1cccc(C)c1-c1cc2nc(n1)NS(=O)(=O)c1cccc(c1)C(=O)N(C)C[C@@H](CNCCC(C)(C)C)O2 [Compound 1018]
++ (++ is 30-60%) | < 1 µM |  |  | Cc1cccc(C)c1-c1cc2nc(n1)NS(=O)(=O)c1cccc(c1)CN(Cc1ccc(Oc3ccccc3)cc1)[C@H](CC(C)C)CO2 [Compound 1030]
+++ (+++ is >60%) | < 1 µM |  |  | Cc1cccc(C)c1-c1cc2nc(n1)NS(=O)(=O)c1cccc(c1)C(=O)N(Cc1ccc(N3CCC(F)CC3)nc1)[C@H](CC(C)C)CO2 [Compound 973]
+++ (+++ is >60%) | < 1 µM |  |  | Cc1cccc(C)c1-c1cc2nc(n1)NS(=O)(=O)c1cccc(c1)C(=O)N(CC1CC13CCOCC3)[C@H](CC(C)C)CO2 (stereo partly shown) [Compound 416]
+++ (+++ is >60%) | < 1 µM |  |  | Cc1cccc(C)c1-c1cc2nc(n1)NS(=O)(=O)c1cccc(c1)C(=O)N(CC1CC3(CCN(C(C)C)CC3)C1)[C@H](CC(C)C)CO2 [Compound 415]
+++ (+++ is >60%) | < 1 µM |  |  | Cc1cccc(C)c1-c1cc2nc(n1)NS(=O)(=O)c1cccc(c1)CN(Cc1cccnc1OCC1CC1)[C@H](CC(C)C)CO2 [Compound 1028]
 |  | ++ (++ is 30-60%) | < 1 µM | Cc1cccc(C)c1-c1cc2nc(n1)NS(=O)(=O)c1cccc(c1)CN(Cc1ccccc1)[C@H](CC(C)C)CO2 [Compound 1044]
 |  | + (+ is <30%) |  | Cc1cccc(C)c1-c1cc2nc(n1)NS(=O)(=O)c1cccc(c1)C(=O)N(C)CC(CNCCC(C)(C)C)O2 (stereo not shown) [Compound 1019]
 |  | ++ (++ is 30-60%) | < 1 µM | Cc1cccc(C)c1-c1cc2nc(n1)NS(=O)(=O)c1cccc(c1)C(=O)N(CC(C)C)C[C@H](c1ccccc1)O2 [Compound 864]
 |  | +++ (+++ is >60%) | < 1 µM | Cc1cc(CN2C(=O)c3cccc(c3)S(=O)(=O)Nc3nc(cc(-c4c(C)cccc4C)n3)OC[C@H]2CC(C)C)[nH]n1 [Compound 430]
+++ (+++ is >60%) | < 1 µM |  |  | COC(=O)c1ccc(CN2C(=O)c3cccc(c3)S(=O)(=O)Nc3nc(cc(-c4c(C)cccc4C)n3)OC[C@H]2CC(C)C)cn1 [Compound 95, Methyl 5-{[(11R)-6-(2,6-Dimethylphenyl)-11-(2-methylpropyl)-2,2,13-trioxo-9-oxa-2λ^6-thia-3,5,12,19-tetraazatricyclo[12.3.1.14,8]nonadeca-1(18),4(19),5,7,14,16-hexaen-12-yl]methyl}pyridine-2-carboxylate]

Ent. A Max Activity (Table 7) | EC50 (Table 7) | Ent. A Max Activity (Table 6) | EC50 (Table 6) | Structure (SMILES)
 |  | +++ (+++ is >60%) | < 1 µM | COCCOCCN1C(=O)c2cccc(c2)S(=O)(=O)Nc2nc(cc(-c3c(C)cccc3C)n2)OC[C@H]1CC(C)C [Compound 424]
+++ (+++ is >60%) | < 1 µM |  |  | Cc1cccc(C)c1-c1cc2nc(n1)NS(=O)(=O)c1cccc(c1)C(=O)N(Cc1ccc(N3CCC[C@@H]3C)nc1)[C@H](CC(C)C)CO2 [Compound 960]
+++ (+++ is >60%) | < 1 µM |  |  | COC1CCN(c2ccc(CN3C(=O)c4cccc(c4)S(=O)(=O)Nc4nc(cc(-c5c(C)cccc5C)n4)OC[C@H]3CC(C)C)cn2)CC1 [Compound 971]
 |  | +++ (+++ is >60%) | < 1 µM | Cc1cccc(C)c1-c1cc2nc(n1)NS(=O)(=O)c1cccc(c1)C(=O)N(CC1CCCN1)[C@H](CC(C)C)CO2 (stereo partly shown) [Compound 344]
 |  | ++ (++ is 30-60%) | < 1 µM | Cc1cccc(C)c1-c1cc2nc(n1)NS(=O)(=O)c1cccc(c1)C(=O)N(C)C[C@H](c1ccccc1)O2 [Compound 672]
 |  | +++ (+++ is >60%) | < 1 µM | Cc1cccc(C)c1-c1cc2nc(n1)NS(=O)(=O)c1cccc(c1)C(=O)N(Cc1ccccc1)[C@H](CC(C)C)CO2 [Compound 862]
++ (++ is 30-60%) | < 1 µM |  |  | Cc1cccc(C)c1-c1cc2nc(n1)NS(=O)(=O)c1cccc(c1)C(=O)N(Cc1ccc(N3CCC(C(F)(F)F)CC3)nc1)[C@H](CC(C)C)CO2 [Compound 969]
++ (++ is 30-60%) | 1 to 3 µM |  |  | Cc1cccc(C)c1-c1cc2nc(n1)NS(=O)(=O)c1cccc(c1)CN(C(=O)Cc1ccccc1)[C@H](CC(C)C)CO2 [Compound 1051]
 |  | +++ (+++ is >60%) | < 1 µM | CNc1ccc(CN2C(=O)c3cccc(c3)S(=O)(=O)Nc3nc(cc(-c4c(C)cccc4C)n3)OC[C@H]2CC(C)C)cn1 [Compound 857]
 |  | +++ (+++ is >60%) | < 1 µM | Cc1cccc(C)c1-c1cc2nc(n1)NS(=O)(=O)c1cccc(c1)C(=O)N(Cc1ccc(N3CCOCC3)nc1)[C@H](CC(C)C)CO2 [Compound 976]
 |  | +++ (+++ is >60%) | < 1 µM | Cc1ccccc1-c1cc2nc(n1)NS(=O)(=O)c1cccc(c1)C(=O)N(C)[C@H](CC(C)C)[C@H](c1ccc(C(C)(C)C)cn1)O2 [Compound 343]
 |  | +++ (+++ is >60%) | < 1 µM | COc1ccc(CN2C(=O)c3cccc(c3)S(=O)(=O)Nc3nc(cc(-c4c(C)cccc4C)n3)OC[C@H]2CC(C)C)cn1 [Compound 422]
+++ (+++ is >60%) | < 1 µM |  |  | Cc1cccc(C)c1-c1cc2nc(n1)NS(=O)(=O)c1cccc(c1)C(=O)N(Cc1ccc(NCCO)nc1)[C@H](CC(C)C)CO2 [Compound 946]
+++ (+++ is >60%) | < 1 µM |  |  | Cc1cccc(C)c1-c1cc2nc(n1)NS(=O)(=O)c1cccc(c1)C(=O)N(Cc1ccc(N3CCC4(CC3)COC4)nc1)[C@H](CC(C)C)CO2 [Compound 965]
+ (+ is <30%) |  |  |  | CC(=O)N1Cc2cccc(c2)S(=O)(=O)Nc2nc(cc(-c3c(C)cccc3C)n2)OC[C@H]1CC(C)C [Compound 1025]
 |  | +++ (+++ is >60%) | 1 to 3 µM | Cc1cccc(C)c1-c1cc2nc(n1)NS(=O)(=O)c1cccc(c1)C(=O)N(Cc1ccc(=O)[nH]c1)[C@H](CC(C)C)CO2 [Compound 1109]
